From article PMC6502086 (Molecular Biology and Evolution, 2019)

Target: T1, Or22a (Or22a^1; ab3A-1 neurons) (Drosophila melanogaster, UniProt P81909)
T1 sequence (P81909 1-397): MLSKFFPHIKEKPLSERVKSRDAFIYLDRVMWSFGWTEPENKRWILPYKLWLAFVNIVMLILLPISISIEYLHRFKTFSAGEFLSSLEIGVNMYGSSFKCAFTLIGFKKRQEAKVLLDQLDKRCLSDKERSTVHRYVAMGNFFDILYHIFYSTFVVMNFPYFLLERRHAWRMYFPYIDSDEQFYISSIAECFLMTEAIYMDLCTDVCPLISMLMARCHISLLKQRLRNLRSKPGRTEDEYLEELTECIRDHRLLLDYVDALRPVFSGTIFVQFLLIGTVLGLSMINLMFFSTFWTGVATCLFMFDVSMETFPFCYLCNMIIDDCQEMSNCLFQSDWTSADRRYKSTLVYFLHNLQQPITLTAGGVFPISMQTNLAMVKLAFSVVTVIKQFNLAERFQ
T1 sequence (Q9VNB5 1-486 partner): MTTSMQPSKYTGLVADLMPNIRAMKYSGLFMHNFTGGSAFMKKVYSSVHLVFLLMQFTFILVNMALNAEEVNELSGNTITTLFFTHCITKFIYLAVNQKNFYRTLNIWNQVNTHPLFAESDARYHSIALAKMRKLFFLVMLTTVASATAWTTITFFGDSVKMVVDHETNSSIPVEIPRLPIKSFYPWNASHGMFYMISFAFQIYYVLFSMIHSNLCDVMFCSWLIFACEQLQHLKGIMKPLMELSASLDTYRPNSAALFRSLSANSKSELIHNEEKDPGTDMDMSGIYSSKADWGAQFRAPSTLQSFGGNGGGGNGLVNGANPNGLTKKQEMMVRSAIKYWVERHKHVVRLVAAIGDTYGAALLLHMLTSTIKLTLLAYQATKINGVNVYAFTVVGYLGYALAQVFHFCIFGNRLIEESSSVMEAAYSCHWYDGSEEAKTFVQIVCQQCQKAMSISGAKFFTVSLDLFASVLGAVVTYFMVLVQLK
Assay: single-sensillum recording, transgene in empty ab3A neuron

Structure (SMILES)	spikes/s (odorant at 10^−2 v/v in paraffin oil)	spikes/s (odorant at 10^−4 v/v in paraffin oil)
CCOC(=O)C(C)CC (centres unmarked) [ethyl 2-methyl butanoate]	flies expressing Or22ab have decreased responses to ethyl hexanoate, methyl hexanoate, and ethyl 2-methyl butanoate	–
CCCCCC(=O)OC [methyl hexanoate]	–	flies expressing Or22ab have decreased responses to ethyl hexanoate, methyl hexanoate, and ethyl 2-methyl butanoate
